Laboratory results: patent publication US20060083759A1, “Stabilization of the profile of release of active substances from a formulation” (priority 2002, published 2006)

Test: release (dissolution) of clarithromycin from tablets at aging / stability testing
Type: physicochemical
Settings: for change of tablet dissolution at aging: clarithromycin particle size over 200 μm
Source text: By comparing the profiles it has been established that the release rate of a high dosage active substance being poorly soluble in an aqueous medium from a formulation changes with aging, which is even more expressed in the conditions of an accelerated stability assay.
Thus recrystallization is kept at the lowest possible level. In the case of micronizing clarithromycin with large particles also the particle porosity and brittleness are reduced. Micronized clarithromycin can either be already the product of a basic synthesis process or it may be micronized later from clarithromycin with large particles.

In the case of `CC[C@H]1OC(=O)[C@H](C)[C@@H](O[C@H]2C[C@@](C)(OC)[C@@H](O)[C@H](C)O2)[C@H](C)[C@@H](O[C@@H]2O[C@H](C)C[C@H](N(C)C)[C@H]2O)[C@](C)(OC)C[C@@H](C)C(=O)[C@H](C)[C@@H](O)[C@]1(C)O` [clarithromycin], the “changes in the release rate” value (particle size d(0.9) up to about 30 μm at the most, humidified with a minimum amount of water) is reported as “minimized”, the “change of tablet dissolution at aging” value (tablets made by aqueous granulation) is reported as “noticeably decreases” and the “change of tablet dissolution at aging” value (tablets made by direct tabletting) is reported as “noticeably increases”.
